{
  "source": "paper PMC3112458",
  "about": "“Marked increase in etravirine and saquinavir plasma concentrations during atovaquone/proguanil prophylaxis” (Malaria Journal, 2011)",
  "key": {"[1]": {"set-up": "method as in PMID 17297027", "conditions": "cited from earlier work"}, "[2]": {"set-up": "method as in PMID 17297027", "conditions": "cited from earlier work", "remark": "listed apart in the source"}, "[3]": {"set-up": "method as in PMID 20299957", "conditions": "cited from earlier work"}, "[4]": {"experiment": "12 hour-PK of anti-retrovirals before and at day 20 of atovaquone/proguanil prophylaxis (HPLC-UV, plasma)", "format": "in vivo, human", "conditions": "for Δ AUC0-12h (during prophylaxis AUC minus pre-prophylaxis AUC): plasma, one HIV patient, day 20 of atovaquone/proguanil 250/100 mg daily vs before prophylaxis", "description": "In September 2009, the patient planned to spend a two-week holiday in Kenya. […] Standard malaria prophylaxis with atovaquone/proguanil fixed-dose combination (250/100 mg) was prescribed: one tablet daily starting two days before the journey and ending the treatment seven days after return to Italy. A 12 hour-PK of anti-retrovirals was performed before starting prophylaxis with atovaquone/proguanil (Figure 1). The samples were collected in fasting status following this order: the first sample 12 hours after the last dose of anti-retrovirals (pre-dose); the second sample one hour after breakfast and anti-retrovirals consumption; the following samples at 2, 4, 6 and 12 hours post anti-retrovirals' intake. The second PK for the determination of anti-retrovirals' plasma concentrations during atovaquone/proguanil prophylaxis was collected at day 20 on prophylaxis with the same timing plan (Figure 1). In order to avoid any food interference with the PK results, the same diet was administered in both the PK sampling days."}, "CYP3A": {"test_system": "CYP3A", "set-up": "method as in PMID 19725591", "conditions": "cited from earlier work"}, "[5]": {"test_system": "CYP2C9, 2C19 and P-glycoprotein", "set-up": "method as in PMID 19725591", "conditions": "cited from earlier work"}, "P450 system": {"test_system": "P450 system", "set-up": "method as in PMID 9530286, PMID 9835508", "conditions": "cited from earlier work"}, "P-glycoprotein and MRP1": {"test_system": "P-glycoprotein and MRP1", "set-up": "method as in PMID 9530286, PMID 9835508", "conditions": "cited from earlier work"}},
  "note": "Where two headings read alike, the source gives them in different places.",
  "data": [
    {"smiles": "O=C1C(O)=C([C@H]2CC[C@H](c3ccc(Cl)cc3)CC2)C(=O)c2ccccc21", "note": "[atovaquone]", "values": [
      {"measurement": "elimination half-life", "setting": "[1]; adults", "result": "48 to 72", "unit": "h"},
      {"measurement": "drug excreted unchanged in the faeces", "setting": "[1]", "result": 94, "unit": "%"},
      {"measurement": "protein-bound", "setting": "[2]", "result": "> 99", "unit": "%"},
      {"measurement": "geometric mean ratio (95% confidence interval) of AUC of atovaquone", "setting": "[3]; patients on atazanavir/ritonavir compared with healthy volunteers", "result": "0.54 (0.35-0.83)"},
      {"measurement": "geometric mean ratio (95% confidence interval) of AUC of atovaquone", "setting": "[3]; patients on efavirenz compared with healthy volunteers", "result": "0.25 (0.16-0.38)"},
      {"measurement": "geometric mean ratio (95% confidence interval) of AUC of atovaquone", "setting": "[3]; patients on lopinavir/ritonavir compared with healthy volunteers", "result": "0.26 (0.17-0.41)"}
    ]},
    {"smiles": "Cc1cc(C#N)cc(C)c1Oc1nc(Nc2ccc(C#N)cc2)nc(N)c1Br", "note": "[etravirine]", "values": [
      {"measurement": "Δ AUC0-12h (during prophylaxis AUC minus pre-prophylaxis AUC)", "setting": "[4]", "result": "+55%"},
      {"measurement": "induction of CYP3A", "setting": "CYP3A", "result": "inducer"},
      {"measurement": "inhibition of CYP2C9, 2C19 and P-glycoprotein", "setting": "[5]", "result": "mild inhibitor"}
    ]},
    {"smiles": "[H]/N=C(\\N/C(=N/[H])Nc1ccc(Cl)cc1)NC(C)C", "note": "[proguanil]", "values": [
      {"measurement": "absolute bioavailability", "setting": "[1]", "result": "≤ 60", "unit": "%"},
      {"measurement": "elimination half-life", "setting": "[1]", "result": "12 to 21", "unit": "h"},
      {"measurement": "time to peak plasma concentrations", "setting": "[1]", "result": "2 to 4", "unit": "h"},
      {"measurement": "protein-bound", "setting": "[2]", "result": 75, "unit": "%"},
      {"measurement": "plasma concentrations lower", "setting": "[3]; patients on efavirenz, lopinavir/ritonavir or atazanavir/ritonavir compared with healthy volunteers", "result": "38-43%"}
    ]},
    {"smiles": "Cc1nnc(C(=O)NC(C)(C)c2nc(C(=O)NCc3ccc(F)cc3)c(O)c(=O)n2C)o1", "note": "[raltegravir]", "values": [
      {"measurement": "Tmax and Cmax in post-prophylaxis versus pre-prophylaxis", "setting": "[4]; PK profiles, day 20 of atovaquone/proguanil prophylaxis", "result": "earlier"},
      {"measurement": "Δ AUC0-12h (during prophylaxis AUC minus pre-prophylaxis AUC)", "setting": "[4]", "result": -23, "unit": "%"}
    ]},
    {"smiles": "CC(C)(C)NC(=O)[C@@H]1C[C@@H]2CCCC[C@@H]2CN1C[C@@H](O)[C@H](Cc1ccccc1)NC(=O)[C@H](CC(N)=O)NC(=O)c1ccc2ccccc2n1", "note": "[saquinavir]", "values": [
      {"measurement": "Δ AUC0-12h (during prophylaxis AUC minus pre-prophylaxis AUC)", "setting": "[4]", "result": "+274%"},
      {"measurement": "induction or inhibition of P450 system", "setting": "P450 system", "result": "neither an inducer nor an inhibitor"},
      {"measurement": "interaction with P-glycoprotein and MRP1", "setting": "P-glycoprotein and MRP1", "result": "substrate and inhibitor"}
    ]}
  ]
}
